Reference: US6506772B1, “Substituted [1,2,4]triazolo[1,5a]pyridine derivatives with activity as adenosine receptor ligands” (Hoffmann-La Roche Inc., priority 2000, dated 2003)
Where two headings read alike, the source gives them in different places.

What was measured:
[1] = biological target: T1, human adenosine A2A receptor (Homo sapiens, UniProt P29274); assay: Human adenosine A2A receptor [3H]-SCH-58261 binding assay
T1 construct: expressed in transfected cells; host or cells: CHO cells, Semliki Forest virus expression system; membrane preparation

[2] = biological target: T2, HA1 adenosine receptor (Homo sapiens, UniProt P30542); assay: Human adenosine A1 receptor affinity (Ki hA1); type: binding
T2 sequence (P30542 1-326): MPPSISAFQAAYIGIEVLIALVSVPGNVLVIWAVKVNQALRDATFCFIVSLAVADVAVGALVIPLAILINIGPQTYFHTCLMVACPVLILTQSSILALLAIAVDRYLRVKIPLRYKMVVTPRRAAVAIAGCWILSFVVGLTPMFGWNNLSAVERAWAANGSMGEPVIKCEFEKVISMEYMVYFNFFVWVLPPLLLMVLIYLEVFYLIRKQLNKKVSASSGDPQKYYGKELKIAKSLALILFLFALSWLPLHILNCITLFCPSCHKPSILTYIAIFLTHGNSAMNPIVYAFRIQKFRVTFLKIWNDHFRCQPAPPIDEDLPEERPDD

[3] = affinity to human adenosine A2A receptor, read-out: Ki HA2A
[4] = calculated ratio of the affinity to the HA1 receptor to the HA2a receptor
[5] = affinity to human adenosine A1 receptor
[6] = recombinant human A2A in CHO cell membranes, [3H]-SCH-58261, Cheng-Prussoff, read-out: Ki hA2A

T1 sequence (P29274 whole entry): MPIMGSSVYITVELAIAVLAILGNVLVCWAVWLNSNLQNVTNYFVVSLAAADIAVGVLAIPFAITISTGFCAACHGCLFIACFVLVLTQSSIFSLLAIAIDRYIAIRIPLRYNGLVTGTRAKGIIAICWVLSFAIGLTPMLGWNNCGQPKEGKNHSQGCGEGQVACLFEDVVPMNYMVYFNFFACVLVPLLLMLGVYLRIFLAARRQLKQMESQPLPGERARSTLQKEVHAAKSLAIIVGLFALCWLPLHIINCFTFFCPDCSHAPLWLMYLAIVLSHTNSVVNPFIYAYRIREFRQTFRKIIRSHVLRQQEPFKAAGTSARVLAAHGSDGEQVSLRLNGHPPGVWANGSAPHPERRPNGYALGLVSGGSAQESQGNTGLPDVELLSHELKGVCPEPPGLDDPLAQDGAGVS

| Compound | Ki [1, 3] | selectivity (A1/A2a) [1, 4] | Ki [2, 5] | selectivity (A1/A2a) ([1]; ratio KiHA1 divided by KiHA2A) | Ki [1, 6] | Ki [2] |
| --- | --- | --- | --- | --- | --- | --- |
| Cc1ccc(-c2nc3cc(C(=O)N(C)Cc4ccccc4)cc(N)n3n2)o1 [Example 140, 5-Amino-2-(5-methyl-furan-2-yl)-[1,2,4]triazolo[1,5-a]pyridine-7-carboxylic acid benzyl-methyl-amide] | 7.3 nM | 14.7 | 107 nM |  |  |  |
| Cc1ccc(-c2nc3cc(C(=O)NCc4ccc(F)cc4)cc(N)n3n2)o1 [Example 213, 5-Amino-2-(5-methyl-furan-2-yl)-[1,2,4]triazolo[1,5-a]pyridine-7-carboxylic acid 4-fluoro-benzylamide] | 73.2 nM | 4.7 | 343 nM |  |  |  |
| Nc1cc(C(=O)NCc2ccccc2Br)cc2nc(-c3ccco3)nn12 [Example 110, 5-Amino-2-furan-2-yl-[1,2,4]triazolo[1,5-a]pyridine-7-carboxylic acid 2-bromo-benzylamide] | 2.6 nM | 24.5 | 64.2 nM |  |  |  |
| NC(=O)C1CCCN(C(=O)c2cc(N)n3nc(-c4ccc(Br)o4)nc3c2)C1 (stereo not drawn) [Example 394, 1-[5-Amino-2-(5-bromo-furan-2-yl)-[1,2,4]triazolo[1,5-a]pyridine-7-carbonyl]-piperidine-3-carboxylic acid amide] |  |  |  | 37.9 | 11 nM | 417 nM |
| CC(C)N(Cc1ccccc1)C(=O)c1cc(N)n2nc(-c3ccccc3O)nc2c1 [Example 121, 5-Amino-2-(2-hydroxy-phenyl)-[1,2,4]triazolo[1,5-a]pyridine-7-carboxylic acid benzyl-isopropyl-amide] | 17 nM | 12.0 | 204 nM |  |  |  |
| CCCCNC(=O)c1cc(N)n2nc(-c3ccc(C)o3)nc2c1 [Example 137, 5-Amino-2-(5-methyl-furan-2-yl)-[1,2,4]triazolo[1,5-a]pyridine-7-carboxylic acid butylamide] | 11 nM | 19.8 | 218 nM |  |  |  |
| CCN(CCOC)C(=O)c1cc(N)n2nc(-c3ccc(Br)o3)nc2c1 [Example 396, 5-Amino-2-(5-bromo-furan-2-yl)-[1,2,4]triazolo[1,5-a]pyridine-7-carboxylic acid ethyl-(2-methoxy-ethyl)-amide] |  |  |  | 48.7 | 3.5 nM | 170 nM |
| CC1CCCCN1C(=O)c1cc(N)n2nc(-c3ccccn3)nc2c1 (stereo not drawn) [Example 418, (5-amino-2-pyridin-2-yl-[1,2,4]triazolo[1,5-a]pyridin-7-yl)-(2-methyl-piperidin-1-yl)-methanone] |  |  |  | 24.2 | 42.4 nM | 1020 nM |
| CC1CCN(C(=O)c2cc(N)n3nc(-c4ccc(Br)o4)nc3c2)CC1 [Example 337, [5-Amino-2-(5-bromo-furan-2-yl)-[1,2,4]triazolo[1,5-a]pyridin-7-yl]-(4-methyl-piperidin-1-yl)-methanone] | 6.4 nM | 28.6 | 183 nM |  |  |  |
| CCCCN(C)C(=O)c1cc(N)n2nc(-c3nccs3)nc2c1 [Example 287, 5-Amino-2-thiazol-2-yl-[1,2,4]triazolo[1,5-a]pyridine-7-carboxylic acid butyl-methyl-amide] | 142 nM | 15.4 | 2190 nM |  |  |  |
| Cc1ccsc1-c1nc2cc(C(=O)NC3CCc4ccccc43)cc(N)n2n1 (stereo not drawn) [Example 187, 5-Amino-2-(3-methyl-thiophen-2-yl)-[1,2,4]triazolo[1,5-a]pyridine-7-carboxylic acid indan-1-ylamide] | 224 nM | 1.0 | 228 nM |  |  |  |
| CC1CCC(C)N1C(=O)c1cc(N)n2nc(-c3nccs3)nc2c1 (stereo not drawn) [Example 301] | 62.1 nM | 30.5 | 1900 nM |  |  |  |
| CCN(CC)C(=O)C1CCCN(C(=O)c2cc(N)n3nc(-c4nccs4)nc3c2)C1 (stereo not drawn) [Example 381, 1-(5-Amino-2-thiazol-2-yl-[1,2,4]triazolo[1,5-a]pyridine-7-carbonyl)-piperidine-3-carboxylic acid diethylamide] |  |  |  | 11.4 | 180 nM | 2050 nM |
| Cn1cccc1-c1nc2cc(C(=O)NCc3ccccc3Br)cc(N)n2n1 [Example 182, 5-Amino-2-(1-methyl-1H-pyrrol-2-yl)-[1,2,4]triazolo[1,5-a]pyridine-7-carboxylic acid 2-bromo-benzylamide] | 54.6 nM | 4.9 | 270 nM |  |  |  |
| CCN(Cc1ccncc1)C(=O)c1cc(N)n2nc(-c3ccc(Cl)o3)nc2c1 [Example 262, 5-Amino-2-(5-chloro-furan-2-yl)-[1,2,4]triazolo[1,5-a]pyridine-7-carboxylic acid ethyl-pyridin-4-ylmethyl-amide] | 2.9 nM | 36.8 | 107 nM |  |  |  |
| Nc1cc(C(=O)NC2CCCCC2)cc2nc(-c3ccc(Br)o3)nn12 [Example 165, 5-Amino-2-(5-bromo-furan-2-yl)-[1,2,4]triazolo[1,5-a]pyridine-7-carboxylic acid cyclohexylamide] | 88.8 nM | 8.7 | 770 nM |  |  |  |
| COc1ccc(-c2nc3cc(C(=O)NC4CCC4)cc(N)n3n2)s1 [Example 70, 5-Amino-2-(5-methoxy-thiophen-2-yl)-[1,2,4]triazolo[1,5-a]pyridine-7-carboxylic acid cyclobutylamide] | 113 nM | 1.3 | 148 nM |  |  |  |
| CCCN(C)C(=O)c1cc(N)n2nc(-c3ccc(Cl)o3)nc2c1 [Example 252, 5-Amino-2-(5-chloro-furan-2-yl)-[1,2,4]triazolo[1,5-a]pyridine-7-carboxylic acid methyl-propyl-amide] | 15.5 nM | 28.3 | 438 nM |  |  |  |
| Nc1cc(C(=O)N2CCCCCCC2)cc2nc(-c3nccs3)nn12 [Example 332, (5-Amino-2-thiazol-2-yl-[1,2,4]triazolo[1,5-a]pyridin-7-yl)-azocan-1-yl-methanone] | 17.2 nM | 49.1 | 844 nM |  |  |  |
| CCN(CC)C(=O)c1cc(N)n2nc(-c3ccc(OC)s3)nc2c1 [Example 68, 5-Amino-2-(5-methoxy-thiophen-2-yl)-[1,2,4]triazolo[1,5-a]pyridine-7-carboxylic acid diethylamide] | 171 nM | 4.2 | 717 nM |  |  |  |
| CCN(C(=O)c1cc(N)n2nc(-c3ccccn3)nc2c1)C1CCCCC1 [Example 31, 5-Amino-2-pyridin-2-yl-[1,2,4]triazolo[1,5-a]pyridine-7-carboxylic acid cyclohexyl-ethyl-amide] | 49.6 nM | 22.7 | 1130 nM |  |  |  |
| Nc1cc(C(=O)NCc2ccccc2Cl)cc2nc(-c3ccccc3O)nn12 [Example 159, 5-Amino-2-(2-hydroxy-phenyl)-[1,2,4]triazolo[1,5-a]pyridine-7-carboxylic acid 2-chloro-benzylamide] | 105 nM | 2.7 | 279 nM |  |  |  |
| COc1ccc(-c2nc3cc(C(=O)N(CCc4ccccc4)Cc4ccccc4)cc(N)n3n2)s1 [Example 75, 5-Amino-2-(5-methoxy-thiophen-2-yl)-[1,2,4]triazolo[1,5-a]pyridine-7-carboxylic acid benzyl-phenethyl-amide] | 26.6 nM | 0.6 | 15.8 nM |  |  |  |
| Nc1cc(C(=O)N2CCC3CCCCC3C2)cc2nc(-c3ccc(Br)o3)nn12 (stereo not drawn) [Example 350] | 5.8 nM | 28.8 | 167 nM |  |  |  |
| Nc1cc(C(=O)N2CCCC3CCCCC32)cc2nc(-c3nccs3)nn12 (stereo not drawn) [Example 379, (5-Amino-2-thiazol-2-yl-[1,2,4]triazolo[1,5-a]pyridin-7-yl)-(octahydro-quinolin-1-yl)-methanone] |  |  |  | 17.2 | 33.5 nM | 577 nM |
| CC1CCN(C(=O)c2cc(N)n3nc(-c4nccs4)nc3c2)CC1 [Example 330, (5-Amino-2-thiazol-2-yl-[1,2,4]triazolo[1,5-a]pyridin-7-yl)-(4-methyl-piperidin-1-yl)-methanone] | 64.4 nM | 43.1 | 2780 nM |  |  |  |
| Nc1cc(C(=O)NCc2ccccc2Cl)cc2nc(-c3ccc[nH]3)nn12 [Example 83, 5-Amino-2-(1H-pyrrol-2-yl)-[1,2,4]triazolo[1,5-a]pyridine-7-carboxylic acid 2-chloro-benzylamide] | 130 nM | 11.6 | 1500 nM |  |  |  |
| CN(CCc1ccccc1)C(=O)c1cc(N)n2nc(-c3nccs3)nc2c1 [Example 322, 5-Amino-2-thiazol-2-yl-[1,2,4]triazolo[1,5-a]pyridine-7-carboxylic acid methyl-phenethyl-amide] | 127 nM | 9.6 | 1220 nM |  |  |  |
| CCN(CC)C(=O)c1cc(N)n2nc(-c3nccs3)nc2c1 [Example 120, 5-Amino-2-thiazol-2-yl-[1,2,4]triazolo[1,5-a]pyridine-7-carboxylic acid diethylamide] | 77.4 nM | 35.4 | 2740 nM |  |  |  |
| Cc1ccc(-c2nc3cc(C(=O)N4CCOCC4)cc(N)n3n2)o1 [Example 139, [5-Amino-2-(5-methyl-furan-2-yl)-[1,2,4]triazolo[1,5-a]pyridin-7-yl]-morpholin-4-yl-methanone] | 74.5 nM | 23.5 | 1750 nM |  |  |  |
